# How the values were obtained:
# U266 MM cell line [1] = test: Apoptosis by Annexin V-FITC/PI staining, U266; format: cell-based
# Procedure: (§1) In particular, cells were washed twice with room-temperature PBS, resuspended in 100 μL of Annexin binding buffer, and stained with specific antibodies for 20 minutes.
# MM.1S cells [2] = test: Apoptosis by Annexin V-FITC/PI staining, MM.1S; format: cell-based, human
# Procedure: as §1
# [3] = MTT viability assay, U266; format: cell-based; settings: human, U266 multiple myeloma cells
# Procedure: (§2) Viability of MM cells was evaluated by 3-[4,5-dimethylthiazol-2-yl]-2,5-diphenyltetrazolium bromide (MTT) colorimetric survival assay. MM cells (20,000-50,000) were plated in 100 μL medium. At the various time points (24-96 hours), 10 μL 5 mg/mL MTT were added to plated cells. After 4 hour incubation at 37° C., medium was discarded and 100 μL MTT stop solution (Isopropanonol with […] Hcl) used to dissolve MTT metabolic products. Absorbance was read at 570 nm and background was subtracted at 630 nm, using spectrophotometer SPECTRAMAX M2 machine and Softmax Pro v5 software. Cellular growth was estimated by cell counting in triplicates, excluding dead cells stained by trypan blue.
# ABL1 = ABL1 cytoplasmic/nuclear localization by subcellular fractionation and Western blot in MM cell lines; format: cell-based; settings: 2-10 μM; 1, 2, 6 and 24 hs; MM.1S, H929, UTMC-2, JJN-3, KMS-20
# Procedure: (§3) MM cells were harvested and lysed using lysis buffer: 50 mMTris-HCl (pH 7.4), 150 mM NaCl, 1% NP-40, 5 mM EDTA, 5 mM NaF, 2 mM Na3VO4, 1 mM PMSF, 5 μg/mL leupeptine, and 5 μg/mL aprotinin. Nuclear extracts were prepared using Nuclear Extraction Kit (Panomics). Cell lysates were subjected to sodium dodecyl sulfate-polyacrylamide gel electrophoresis SDS-PAGE, transferred to nitrocellulose membranes, and immunoblotted with different antibodies: ATM, phospho-ATM (Ser1981), ATR, phospho-ATR (Ser428), CHK2, phospho-CHK2 (Thr68), CHK1, phospho-CHK1 (Ser296), p21, p53, phospho-p53 (ser127), STK4, LATS1, phospho-LATS1 (Ser909), phospho-ABL1 (Thr735), cleaved caspase 3, cleaved PARP, histone H3, SAPK/JNK, phospho-SAPK/JNK (Thr183/Tyr185), GM130, GAPDH, and α-tubulin (Cell Signaling); STK4, Nuclear Matrix Protein p84 (Abeam), p73 (BD), phospho-H2A.X (Ser139) (Millipore); as well as ABL1, BAX, Puma, Noxa, actin and nucleolin (Santa Cruz Biotechnology).
# ATM = test: CHK2 (Thr68) phosphorylation immunoblot in MM cells; format: cell-based
# U266 cell line = test: MTT viability assay, U266; format: cell-based; settings: 48 h
# Procedure: as §2
# [4] = MTT viability assay, MM.1S; format: cell-based, human; settings: human, MM.1S multiple myeloma cells; MM.1S; doxorubicin 40 nM, 48 h; read-out: cell viability by MTT assay
# Procedure: as §2
# MTT assay, UTMC-2 = format: cell-based, human; settings: human, UTMC-2 multiple myeloma cells; UTMC-2; doxorubicin 40 nM, 48 h; read-out: cell viability by MTT assay
# Procedure: as §2
# UTMC-2 cells [5] = test: MTT assay, UTMC-2; format: cell-based, human; settings: doxorubicin 40 nM, 48 hours
# Procedure: as §2
# U266 MM cell line [6] = test: DNA damage markers and ABL1 localization in U266; format: cell-based; settings: doxorubicin 40 nM
# Procedure: MM cells were harvested and lysed using lysis buffer: 50 mMTris-HCl (pH 7.4), 150 mM NaCl, 1% NP-40, 5 mM EDTA, 5 mM NaF, 2 mM Na3VO4, 1 mM PMSF, 5 μg/mL leupeptine, and 5 μg/mL aprotinin. Nuclear extracts were prepared using Nuclear Extraction Kit (Panomics). […]
# 15,000 cells from MM cell lines, PBMCs or MM patient samples were cytospun for 5 minutes at 350-500 rpm, fixed in 4% paraformaldehyde (PFA) for 15 minutes, washed three times with PBS, and incubated with 0.1M glycin for 10 minutes to quench PFA autofluorescence. […] The slides were then mounted with ProLong Gold Antifade Reagent (Invitrogen), and images were taken using a Zeiss microscope (Carl Zeiss) equipped with Hamamatsu ORCA-ER camera (Hamamatsu Photonics) and analyzed with ImageJ software. […]
# MM.1S and UTMC-2 = test: DNA damage markers and nuclear ABL1 in MM.1S and UTMC-2; format: cell-based, human; settings: doxorubicin 40 nM
# Procedure: as §3
# YAP1, p73 = test: Western blot of YAP1, p73 and p73 targets in MM.1S and U266; format: cell-based
# Procedure: as §3
# UTMC-2 cells [7] = settings: doxorubicin 40 nM, 48 h, before treatment 19.1%
# [8] = tested on: KMS-20 cells transfected with pLENTI4-YAP1-EGFP; test: Apoptosis by Annexin V-PE/7AAD on GFP-positive YAP1-transfected cells; format: cell-based; settings: YAP1 reintroduced; with imatinib 10 μM
# Procedure: Cellular counting was performed in triplicate for each condition, with trypan blue exclusion. Right panel: Apoptosis by Annexin V-PE/7AAD, gating on GFP-positive cells. The percentage of viable cells (Annexin V-PE-/7AAD-cells) is shown at 48 hours.
# p-ENTR-YAP1-EGFP plasmid was kindly provided by Dr. Marius Sudol and subcloned into pLENTI4-V5DEST vector using GATEWAY strategy. p-LENTI4-LACZ vector was used as control. KMS-18, KMS-20, MM.1S, RPMI-8226 and UTMC-2 cells (5,000,000) cells were transiently transfected with p-LENTI4 YAP1, using ‘Cell Line Nucleofector Kit V (Amaxa Biosystems, Köln, Germany), according to the manufacturer's instructions. AMAXA program: MM.1S→T-030; RPMI-8226→C-015; KMS-18, KMS-20 and UTMC-2→X-001. Specifically, 5×10^6 cells were resuspended in 100 μL V solution and 2500 ng of plasmid. Following transfection, MM cells were subjected to mRNA analysis, Western blotting, as well as apoptosis, cell counting, and MTT assays.
# In particular, cells were washed twice with room-temperature PBS, resuspended in 100 μL of Annexin binding buffer, and stained with specific antibodies for 20 minutes. After adding other […] of Annexin binding buffer, samples were acquired using FACS Canto II machine from Becton Dickinson, BD, and analyzed with FCS EXPRESS 4 Flow Research Edition software.
# MM.1S cells [9] = test: MTT viability assay, MM.1S; format: cell-based, human; settings: MM.1S YAP1-transfected; imatinib 10 μM from day 0
# Procedure: as §2
# [10] = MTT viability assay, KMS-20; format: cell-based; settings: human, KMS-20 multiple myeloma cells, LACZ-transfected; read-out: 48 hour viability (MTT, normalized to LACZ+DMSO)
# Procedure: as §2
# KMS-20 cells = test: MTT viability assay, KMS-20; format: cell-based; settings: KMS-20 YAP1-transfected; imatinib 10 μM from day 0
# Procedure: as §2
# MM.1S MM cells = test: MM.1S xenograft mouse model with inducible STK4 knockdown; format: in vivo, Fox Chase SCID mice; settings: subcutaneous, 6 weeks; scrambled shRNA tumors 1965 mm^3
# Procedure: A genetic approach conditionally knocking down STK4 in MM.1S cells was performed. In this study, MM.1S MM cells were infected with either inducible scrambled shRNAs, or inducible pLKO.1-TET shRNA #4 and pTRIPZ 63 directed against STK4 and then injected subcutaneously into three sites (left and right flank and interscapular region) in a group of 12 Fox Chase SCID mice.
# YAP1 = YAP1 knockdown by lentiviral shRNA; format: cell-based
# Procedure: Lentiviral short hairpin RNAs (shRNA) were used to knockdown YAP1 and STK4 expression in MM cells. Scrambled control pLKO.1 shRNA vectors and specific YAP1 and STK4 shRNA constructs were kindly provided by Dr. William Hahn (Dana-Farber Cancer Institute).
# The efficacy of each shRNA in silencing gene expression was tested in HCT-116 and HeLa cell lines using Mirus Bio Trans-IT LT1 transfection reagent. To obtain stable silenced clones with YAP1/STK4 shRNA or pLKO.1 control plasmid, the following protocol was used. 293T cells were plated (300,000 cells on 6-cm plates) in DMEM/10% FBS/0.1% P/S. After 24 hours when cells were 60-70% confluent, 1000 ng of vector of interest together with 100 ng p-VSV-G and 900 ng delta 8.94 (both packaging vectors purchased from Addgene) were co-transfected with MIRUS BIO TransIT-LT1 diluted in OPTI-MEM (GIBCO). After 12 hours, 293T media was changed with DMEM/[…] to promote viral production. 24 and 48 hours post transfection, supernatant containing lentiviral particles was harvested, filtered with 0.45 μM diameter filter, and used to infect 2.5×10^6 MM cells. […] After the second cycle of infection, cells were put under selection with a suitable concentration of puromycin. mRNA and protein expression were evaluated 48 and 72 hrs after selection. […]
compound,measurement,setting,value
CCOc1cc2ncc(C#N)c(Nc3ccc(OCc4ccccn4)c(Cl)c3)c2cc1NC(=O)/C=C/CN(C)C [HKI-272],apoptosis (Annexin V-PI),"U266 MM cell line [1]; 10 μM, untreated 10%",43%
same,apoptosis (Annexin V-FITC/PI),"MM.1S cells [2]; 10 μM, untreated 11%",67%
same,"viability at 24 h, 10 µM","[3]; 10 μM, 24 h, read-out: 24 hour viability (MTT, normalized to DMSO)",98.2%
same,"viability at 48 h, 10 µM","[3]; 10 μM, 48 h, read-out: 48 hour viability (MTT, normalized to DMSO)",87.8%
same,"viability at 72 h, 10 µM","[3]; 10 μM, 72 h, read-out: 72 hour viability (MTT, normalized to DMSO)",56.9%
same,"viability at 96 h, 10 µM","[3]; 10 μM, 96 h, read-out: 96 hour viability (MTT, normalized to DMSO)",17.9%
O=c1cc(-c2cccc3c2Sc2ccccc2S3)oc(N2CCOCC2)c1 [Ku55933],cytoplasmic and nuclear ABL1 levels,ABL1,"increase in the levels of cytoplasmic ABL1, and a concomitant strong reduction of nuclear ABL1"
same,CHK2 phosphorylation at Thr68,ATM,reduction in CHK2 phosphorylation at Thr68
COc1cccc2c1C(=O)c1c(O)c3c(c(O)c1C2=O)C[C@@](O)(C(=O)CO)C[C@@H]3O[C@H]1C[C@H](N)[C@H](O)[C@H](C)O1 [doxorubicin],apoptotic cells (Annexin V and PI staining),"U266 MM cell line [1]; doxorubicin 40 nM, 48 h, before treatment 13.1%",40.1%
same,apoptosis (Annexin V-FITC/PI),"MM.1S cells [2]; doxorubicin 40 nM, 48 h, before treatment 12.4%",55.3%
same,"viability at 48 h, 40 nM","[3]; doxorubicin 40 nM, 48 h, read-out: viable cells (MTT assay)",50%
same,viable cells (MTT assay),U266 cell line; doxorubicin 40 nM,52.8%
same,"viability at 48 h, 40 nM",[4],33.3%
same,"viability at 48 h, 40 nM","MTT assay, UTMC-2",66.5%
same,percentage of apoptotic cells by MTT assay,UTMC-2 cells [5]; UTMC-2 control cells,37.4%
same,percentage of apoptotic cells by MTT assay,UTMC-2 cells [5]; UTMC-2 stably YAP1-silenced,15.8%
same,ABL1 localization,U266 MM cell line [6],ABL1 moved to the nuclear compartment
same,"γ-H2A.X foci, pATM and pJNK phosphorylation",U266 MM cell line [6],induced multiple γ-H2A.X foci and strong pATM and pJNK phosphorylation
same,"γ-H2AX, pATM, pJNK and nuclear ABL1",MM.1S and UTMC-2,"increase in γ-H2AX, pATM, and pJNK was evident, along with a major increase in nuclear ABL1"
same,YAP1 and p73 protein levels,"YAP1, p73; doxorubicin 40 nM","induced YAP1, as well as p73"
same,apoptosis (Annexin V-FITC/PI),UTMC-2 cells [7],57.8%
Cc1ccc(NC(=O)c2ccc(CN3CCN(C)CC3)cc2)cc1Nc1nccc(-c2cccnc2)n1 [imatinib],apoptotic cells after reintroduction of YAP1,[8],9.1%
same,viability at 10 µM,"U266 cell line; Homo sapiens, U-266, 48 h, doxorubicin 40 nM with imatinib 10 μM, doxorubicin alone 52.8%",78.5%
same,"48 hour viability (MTT, normalized to LACZ+DMSO)",MM.1S cells [9],86.1%±20.6
same,"viability at 48 h, 10 µM",[10],103%
same,"48 hour viability (MTT, normalized to LACZ+DMSO)",KMS-20 cells,96.7%+8.9
same,"YAP1, p73 and p73-target expression triggered by DNA-damaging agents","YAP1, p73; doxorubicin 40 nM with imatinib 10 μM","stifled the increase in YAP1, p73 and p73-target expression"
pLKO.1-TET shRNA #4: inducible shRNA directed against STK4; clone #4 target sequence GCCAAGCGGAATACAGTGATA (the letters are possibly those of the target site),xenograft tumor growth,MM.1S MM cells,no growth was evident
"shRNA #1: lentiviral shRNA targeting YAP1, CCCAGTTAAATGTTCACCAAT",knockdown of YAP1,YAP1,robust knockdown of YAP1
"shRNA #3: lentiviral shRNA targeting YAP1, CAGGTGATACTATCAACCAAA (the letters are possibly those of the target site)",knockdown of YAP1,YAP1,robust knockdown of YAP1

# — patent US10017767B2, “Targets in multiple myeloma and other disorders” (FONDAZIONE CENTRO SAN RAFFAELE, priority 2012, dated 2018)
